The nature of series [1]: Thermal stability, LCMS (% remaining at 95° C. for 1 h). Particulars: 20 mM DMSO stock diluted 100-times into Tris-based PCR buffer.
Description: To test for thermal stability (% remaining at 95° C. for 1 h), 20 mM stock solutions of example compounds in DMSO were prepared. The stock solutions were diluted 100-times into a Tris-based PCR buffer and heated to 95° C. for 1 hour in a thermocycler. The solutions were then analyzed by LCMS.
(§1) Compound purity and percent remaining were determined by integrating peaks in the total ion chromatogram using LCMS. Compound peaks were identified in negative mode using the molecular weight without sodium. The mobile phase of acetonitrile and water contained 10 mM ammonium acetate using a Synergi Max-RP column, 50×4.6 mm, 2.5 microns.
A short description of series [2]: Acid stability in 2% TFA, LCMS. Particulars: 3 mM stock diluted 6-times to 2% TFA-NanoPure water.
Description: To test for acid stability, a 3% stock solution (9 mg/300 μL) of each example compound was prepared in NanoPure water. A secondary 3 mM stock solution was prepared in NanoPure water. The secondary stock was diluted 6-times in NanoPure water as a control or diluted 6-times into 2.4% TFA-NanoPure water to 2% TFA-NanoPure water for the acid stability experiment. The solutions were heated to 40° C. for 1 hour and analyzed by LCMS.
as §1
Another series concerns the target T1, Trypsin Gold (Promega) (Sus scrofa, UniProt P00761).
T1 construct: purchased Promega
Description: Trypsin compatibility with the trypsin-specific substrate BAEE. It counts as biochemical. Particulars: 0.1% surfactant, 200 μM BAEE; for Slope: 0.2 μg Trypsin Gold, absorbance at 253 nm every minute over 10 minutes; for % Trypsin Activity: compared to control of trypsin without surfactant. The protocol: Compatibility of the different compounds with trypsin was tested using a trypsin-specific substrate, benzoyl-L-arginine ethyl ester hydrochloride (BAEE). 4% stock solutions (12 mg/300 μL) of example compounds were prepared in NanoPure water. The stock solution was diluted 40 times in 50 mM ammonium bicarbonate, pH 7.8 (0.1% final) with 200 μM of BAEE. The entire sample was transferred to an individual well in a 96-well UV-compatible microplate. The absorbance of the sample was measured at 253 nm using a TECAN M1000 plate reader. After 2 minutes, 0.2 μg of Trypsin Gold (Promega) was added to the reaction and absorbance at 253 nm was monitored every minute over a period of 10 minutes. The resulting activity measurement was compared to the control of trypsin without surfactant present. Trypsin is the most commonly used protease for the digestion of protein mass spectrometry samples. The results from this experiment indicate that the compounds have a minimal effect on trypsin activity and can be used during the sample digestion step.

T1 sequence (P00761 9-231): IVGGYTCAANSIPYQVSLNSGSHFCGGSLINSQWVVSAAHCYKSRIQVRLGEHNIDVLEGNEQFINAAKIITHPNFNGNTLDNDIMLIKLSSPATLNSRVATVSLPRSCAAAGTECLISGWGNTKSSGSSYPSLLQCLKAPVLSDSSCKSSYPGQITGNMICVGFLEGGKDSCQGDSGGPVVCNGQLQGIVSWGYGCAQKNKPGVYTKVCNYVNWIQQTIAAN

Take `CCCCCCCCCCC1OCC(COC(=O)NCC(O)CS(=O)(=O)[O-])O1.[Na+]` (stereo not shown) [HW-0801, Sodium 3-((((2-decyl-1,3-dioxolan-4-yl)methoxy)carbonyl)amino)-2-hydroxypropane-1-sulfonic Acid]: the “% remaining after 1 hour at 95° C. in Polymerase Buffer C” value (from here on “% remaining after 1 hour”) in series [1] is listed as 94.1%. Besides, in series [2], the “% remaining after 1 h at 40° C. in 2% TFA” value (“% remaining … in 2% TFA” for short) is “Not soluble”.

`CCCCCOC(C)(COC(=O)NCC(O)CS(=O)(=O)[O-])OCCCCC.[Na+]` (stereo not shown) [RBK-0171]: in series [1], the “% remaining after 1 hour” value is 13.1%.

`CCCCCCCCCCCC1(C)OCC(COC(=O)NCCCS(=O)(=O)[O-])O1.[Na+]` (stereo not shown) [JRW-1573, Sodium 3-((((2-methyl-2-undecyl-1,3-dioxolan-4-yl)methoxy)carbonyl)amino)propane-1-sulfonate]: the “% remaining after 1 hour” value in series [1] came out at 95.0%. Moreover, on Trypsin Gold (Promega), the Slope is given as 0.0133 and the “% Trypsin Activity” value was determined as 92%. Besides, in series [2], the “% remaining … in 2% TFA” value is on record as 0%.

As to `CCCCCCOC(C)(COC(=O)NCCCS(=O)(=O)[O-])OCCCCCC.[Na+]` [RBK-0169], the “% remaining after 1 hour” value in series [1] is on record as 6.0%.

`CC(COC(=O)NCCCS(=O)(=O)[O-])(OCCC(F)(F)C(F)(F)C(F)(F)C(F)(F)C(F)(F)C(F)(F)F)OCCC(F)(F)C(F)(F)C(F)(F)C(F)(F)C(F)(F)C(F)(F)F.[Na+]` [ZZ-0849, Sodium 3-(((2,2-bis((3,3,4,4,5,5,6,6,7,7,8,8,8-tridecafluorooctyl)oxy)propoxy)carbonyl)amino)propane-1-sulfonate]: the “% remaining after 1 hour” value in series [1] is reported as >99%. The “% remaining … in 2% TFA” value in series [2] is on record as 2%.

For `CC(COC(=O)NCCCS(=O)(=O)[O-])(OCCC(F)(F)C(F)(F)C(F)(F)C(F)(F)F)OCCC(F)(F)C(F)(F)C(F)(F)C(F)(F)F.[Na+]` [ZZ-0842, Sodium 3-(((2,2-bis((3,3,4,4,5,5,6,6,6-nonafluorohexyl)oxy)propoxy)carbonyl)amino)propane-1-sulfonate], the “% remaining after 1 hour” value in series [1] was >99%. Further, the “% remaining … in 2% TFA” value in series [2] was found to be 0%.

`CCCCCOC(C)(COC(=O)Nc1ccc(N(CCCS(=O)(=O)[O-])CCCS(=O)(=O)[O-])cc1)OCCCCC.[Na+].[Na+]` [CS-0853, Sodium 3,3′-((4-(((2,2-bis(pentyloxy)propoxy)carbonyl)amino)phenyl)azanediyl) bis(propane-1-sulfonate)]: the “% remaining after 1 hour” value in series [1] is on record as 2.5%. Besides, the “% remaining … in 2% TFA” value in series [2] is listed as 42%.

Regarding `CCCCCCCCCCCC1(C)OCC(COC(=O)Nc2ccc(N(CCCS(=O)(=O)[O-])CCCS(=O)(=O)[O-])cc2)O1.[Na+].[Na+]` (stereo not shown) [SL-1735, Sodium 3,3′-((4-((((2-methyl-2-undecyl-1,3-dioxolan-4-yl)methoxy)carbonyl)amino)phenyl)azanediyl)bis(propane-1-sulfonate)], the “% remaining after 1 hour” value in series [1] is 93.6%. The “% remaining … in 2% TFA” value in series [2] turned out to be 0%.

For `CCCCCCCCCCCCC1OCC(COC(=O)NCC(O)CS(=O)(=O)[O-])O1.[Na+]` (stereo not shown) [HW-0807, Sodium 3-((((2-dodecyl-1,3-dioxolan-4-yl)methoxy)carbonyl)amino)-2-hydroxypropane-1-sulfonic Acid], in series [1], the “% remaining after 1 hour” value is listed as “Not soluble”. Moreover, in series [2], the “% remaining … in 2% TFA” value is “Not soluble”.

Turning to `CCCCCCCCCCCC1OCC(COC(=O)Nc2ccc(N(CCCS(=O)(=O)[O-])CCCS(=O)(=O)[O-])cc2)O1.[Na+].[Na+]` (stereo not shown) [CS-0843, Sodium 3,3′-((4-((((2-undecyl-1,3-dioxolan-4-yl)methoxy)carbonyl)amino)phenyl)-azanediyl)bis(propane-1-sulfonate)], the “% remaining after 1 hour” value in series [1] is given as >99%. The “% remaining … in 2% TFA” value in series [2] amounted to 22%.

In the case of `CCCCCCC1(CCCCCC)OCC(COC(=O)NCC(O)CS(=O)(=O)[O-])O1.[Na+]` (stereo not shown) [JZ-0179, Sodium 3-((((2,2-dihexyl-1,3-dioxolan-4-yl)methoxy)carbonyl)amino)-2-hydroxypropane-1-sulfonate], the “% remaining after 1 hour” value in series [1] was 83.9%. For the same compound, the “% remaining … in 2% TFA” value in series [2] came out at 100%.

`CC(COC(=O)NCC(O)CS(=O)(=O)[O-])(OCCC(F)(F)C(F)(F)C(F)(F)C(F)(F)C(F)(F)C(F)(F)F)OCCC(F)(F)C(F)(F)C(F)(F)C(F)(F)C(F)(F)C(F)(F)F.[Na+]` (stereo not shown) [ZZ-0846, Sodium 3-(((2,2-bis((3,3,4,4,5,5,6,6,7,7,8,8,8-tridecafluorooctyl)oxy)propoxy)carbonyl)amino)-2-hydroxypropane-1-sulfonate]: the “% remaining after 1 hour” value in series [1] is 93.4%. The “% remaining … in 2% TFA” value in series [2] worked out at 2%.

For `CCCCCCCCCCC1(C)OCC(COC(=O)NCCCS(=O)(=O)[O-])O1.[Na+]` (stereo not shown) [AF-0045, Sodium 3-((((2-decyl-2-methyl-1,3-dioxolan-4-yl)methoxy)carbonyl)amino)propane-1-sulfonate], in series [1], the “% remaining after 1 hour” value is 89.3%. Besides, in series [2], the “% remaining … in 2% TFA” value worked out at 0%.

Regarding `CC(COC(=O)NCC(O)CS(=O)(=O)[O-])(OCCC(F)(F)C(F)(F)C(F)(F)C(F)(F)F)OCCC(F)(F)C(F)(F)C(F)(F)C(F)(F)F.[Na+]` (stereo not shown) [ZZ-0850, Sodium 3-(((2,2-bis((3,3,4,4,5,5,6,6,6-nonafluorohexyl)oxy)propoxy)carbonyl)amino)-2-hydroxypropane-1-sulfonate], in series [1], the “% remaining after 1 hour” value was found to be 90.5%. In series [2], the “% remaining … in 2% TFA” value was found to be 0%.

As for `CCCCCCCCCCCCC1OCC(COC(=O)NCCCS(=O)(=O)[O-])O1.[Na+]` (stereo not shown) [JRW-1574, Sodium 3-((((2-dodecyl-1,3-dioxolan-4-yl)methoxy)carbonyl)amino)propane-1-sulfonate], the “% remaining after 1 hour” value in series [1] came to 92.8%. Also, in series [2], the “% remaining … in 2% TFA” value was found to be 4%.

`CCCCCC1(CCCCC)OCC(COC(=O)NCCCS(=O)(=O)[O-])O1.[Na+]` (stereo not shown) [JZ-0177, Sodium 3-((((2,2-dipentyl-1,3-dioxolan-4-yl)methoxy)carbonyl)amino)propane-1-sulfonate]: the “% remaining after 1 hour” value in series [1] worked out at 99.4%. The “% remaining … in 2% TFA” value in series [2] was 0%.

Take `CCCCCCCC1(CCCCCCC)OCC(COC(=O)NCC(O)CS(=O)(=O)[O-])O1.[Na+]` (stereo not shown) [RBK-0173]: the “% remaining after 1 hour” value in series [1] is 81.2%. Moreover, the “% remaining … in 2% TFA” value in series [2] is “Not soluble”.

With `CCCCCCCCCCCC1(C)OCC(COC(=O)NCC(O)CS(=O)(=O)[O-])O1.[Na+]` (stereo not shown) [HW-0797, Sodium 2-hydroxy-3-((((2-methyl-2-undecyl-1,3-dioxolan-4-yl)methoxy)carbonyl)amino)propane-1-sulfonic Acid], the “% remaining after 1 hour” value in series [1] is given as 83.6%. Besides, the “% remaining … in 2% TFA” value in series [2] is “Not soluble”.

Take `CCCCCCCCCCC1OCC(COC(=O)NCCCS(=O)(=O)[O-])O1.[Na+]` (stereo not shown) [JRW-1564, Sodium 3-((((2-decyl-1,3-dioxolan-4-yl)methoxy)carbonyl)amino)propane-1-sulfonate]: the “% remaining after 1 hour” value in series [1] was found to be 95.2%. Besides, the “% remaining … in 2% TFA” value in series [2] is 1%.

As to `CCCCCCOC(C)(COC(=O)NCC(O)CS(=O)(=O)[O-])OCCCCCC.[Na+]` (stereo not shown) [RBK-0172], in series [1], the “% remaining after 1 hour” value was 8.2%.

Turning to `CCCCCCCCCCCC1OCC(COC(=O)NCC(O)CS(=O)(=O)[O-])O1.[Na+]` (stereo not shown) [HW-0805, Sodium 2-hydroxy-3-((((2-undecyl-1,3-dioxolan-4-yl)methoxy)carbonyl)amino)propane-1-sulfonate], the “% remaining after 1 hour” value in series [1] was 94.2%. Further, the “% remaining … in 2% TFA” value in series [2] is listed as “Not soluble”.

For `CCCCCCCC1(CCCCCCC)OCC(COC(=O)NCCCS(=O)(=O)[O-])O1.[Na+]` (stereo not shown) [RBK-0170], in series [1], the “% remaining after 1 hour” value is reported as 88.3%. In addition, on Trypsin Gold (Promega), the Slope is given as 0.0107 and the “% Trypsin Activity” value is 74%. In series [2], the “% remaining … in 2% TFA” value amounted to 0%.

For `CCCCCC1(CCCCC)OCC(COC(=O)NCC(O)CS(=O)(=O)[O-])O1.[Na+]` (stereo not shown) [JZ-0164, Sodium 3-((((2,2-dipentyl-1,3-dioxolan-4-yl)methoxy)carbonyl)amino)-2-hydroxypropane-1-sulfonate], the “% remaining after 1 hour” value in series [1] is on record as 93.8%. Besides, the “% remaining … in 2% TFA” value in series [2] is 0%.

Regarding `CCCCCOC(C)(COC(=O)NCCCS(=O)(=O)[O-])OCCCCC.[Na+]` [RBK-0168], in series [1], the “% remaining after 1 hour” value turned out to be 5.4%.

For the compound `CCCCCCC1(CCCCCC)OCC(COC(=O)NCCCS(=O)(=O)[O-])O1.[Na+]` (stereo not shown) [TU-1179, Sodium 3-((((2,2-dihexyl-1,3-dioxolan-4-yl)methoxy)carbonyl)amino)propane-1-sulfonate], in series [1], the “% remaining after 1 hour” value was 102.9%. Moreover, in series [2], the “% remaining … in 2% TFA” value is 0%.

Turning to `CCCCCCCCCCCC1OCC(COC(=O)NCCCS(=O)(=O)[O-])O1.[Na+]` (stereo not shown) [JRW-1565, Sodium 3-((((2-undecyl-1,3-dioxolan-4-yl)methoxy)carbonyl)amino)propane-1-sulfonate], the “% remaining after 1 hour” value in series [1] is 95.7%. The “% remaining … in 2% TFA” value in series [2] stood at 1%.

(Values after US11939311B2, “Acid-labile surfactants” (Promega Corporation, priority 2019, dated 2024).)
